Measured values as given in patent publication EP1508334B1, “Water soluble extract from plant of solanum genus and the preparation process thereof, and pharmaceutical composition containing the water soluble extract” (G & E Herbal Biotechnology Co., Ltd., priority 2003, dated 2005).

Experiments:
[1] = Dissolution in water (applicant's observations); assay type: physicochemical; conditions: for direct dissolution in water: compounds purified by HPLC from the water-soluble extract; for concentration at which precipitated: in water after being first dissolved in DMSO; for dissolution in water: without DMSO pre-treatment
[2] = test system: Biomphalaria glabrata; conditions: cited from earlier work
[3] = test system: Phoma medicaginis; conditions: cited from earlier work
[4] = test system: Lymnaea cubensis; conditions: cited from earlier work
[5] = test system: Rhizoctomia solani; conditions: cited from earlier work
[6] = test system: Tribolium castaneum; conditions: cited from earlier work
[7] = test system: Trypanosoma cruzi; conditions: cited from earlier work
[8] = test system: Hep3B; conditions: cited from earlier work
[9] = test system: H441; experiment: MTS tetrazolium salt cytotoxicity assay; assay type: cell-based, human; conditions: different test concentrations / various dosages, 12 hrs, Fig. 8 and Fig. 12
Excerpt: In order to determine whether the water-soluble extract obtained from the plant of Solanum genus according to this invention has anti-cancer activity, the principal cancer cells of Hep3B, H441, and MCF-7 were used as analytic targets, in which Hep3B and H441 were purchased from American Type Culture Collection (ATCC, P.O. Box 1549, Manassas, VA 20108 USA), and MCF-7 was purchased from Food Industry Research and Development Institute (331 Shih-Pin Road, Hsinchu, 300 Taiwan R.O.C.).
Hep3B was incubated in Dulbecco's Modified Eagle's medium (DMEM), while H441 and MCF-7 were incubated in RPMI-1640, both of the media containing 10% fetal bovine serum and 40 mg/L gentamycin.
The cytotoxicity of cancer cells was determined using tetrazolium salt assay (MTS, Mosmann. T., 1983, Immmunol. Meth., 65, 55-63), which was conducted for the colorimetric determination of cell viability according to the manufacturer's procedures (CellTiter 96™ AQ, Promega, Madison, USA).
Cells were seeded at 1x10^4 cells/well in a 96-well plate and incubated in 5% CO2 incubator at 37°C for at least 16 hrs. […] Upon completion of the reaction, absorbency in each well was determined at 490 nm by using ELISA reader 312e, Bio-TEK. Each value was expressed as means ± SD from three experiments.
Cytotoxicity was determined by MTS tetrazolium salt assay disclosed in Pharmacological assay 1. […]

[10] = test system: Manduca sexta; conditions: cited from earlier work
[11] = test system: JTC-26; conditions: cited from earlier work
[12] = test system: human PLC/PRF/5 hepatoma cells; conditions: cited from earlier work
[13] = test system: normal skin fibroblast cells; conditions: cited from earlier work
[14] = test system: TNF receptor I; conditions: cited from earlier work

Compound	direct dissolution in water [1]	concentration at which precipitated [1]	dissolution in water [1]	inhibiting growth of Biomphalaria glabrata [2]	inhibiting growth of Phoma medicaginis [3]	inhibiting growth of Lymnaea cubensis [4]	inhibiting growth of Rhizoctomia solani [5]	inhibiting growth of Tribolium castaneum [6]	inhibiting growth of Trypanosoma cruzi [7]	death of cells by apoptosis pathway [8]	inhibiting the growth of H441 [9]	inhibiting growth of Manduca sexta [10]	growth of JTC-26 [11]	growth of human PLC/PRF/5 hepatoma cells [12]	death of cells by apoptosis pathway [13]	gene expression of TNF receptor I [14]
C[C@@H]1CC[C@@]2(NC1)O[C@H]1C[C@H]3[C@@H]4CC=C5C[C@@H](O[C@@H]6O[C@H](CO)[C@@H](O[C@@H]7O[C@@H](C)[C@H](O)[C@@H](O)[C@H]7O)[C@H](O)[C@H]6O[C@@H]6O[C@@H](C)[C@H](O)[C@@H](O)[C@H]6O)CC[C@]5(C)[C@H]4CC[C@]3(C)[C@H]1[C@@H]2C [solamargine]	directly dissolved in water	more than 5 mg/ml	could not dissolve in water	capable of inhibiting growth	capable of inhibiting growth	capable of inhibiting growth	capable of inhibiting growth	capable of inhibiting growth	capable of inhibiting growth	increases death of cells	effectively inhibited	capable of inhibiting growth	inhibits the growth	inhibits the growth	increases death of cells	up-regulated
C[C@@H]1CC[C@@]2(NC1)O[C@H]1C[C@H]3[C@@H]4CC=C5C[C@@H](O[C@@H]6O[C@H](CO)[C@H](O)[C@H](O[C@@H]7O[C@H](CO)[C@@H](O)[C@H](O)[C@H]7O)[C@H]6O[C@@H]6O[C@@H](C)[C@H](O)[C@@H](O)[C@H]6O)CC[C@]5(C)[C@H]4CC[C@]3(C)[C@H]1[C@@H]2C [solasonine]	directly dissolved in water	more than 5 mg/ml	could not dissolve in water	–	–	–	–	–	–	–	effectively inhibited	–	–	–	–	–
